# Laboratory results from ChEMBL document CHEMBL5696442, “Discovery of type II inhibitors of TGFβ-activated kinase 1 (TAK1) and mitogen-activated protein kinase kinase kinase kinase 2 (MAP4K2)” (J Med Chem, 2015).
# The source made the active and inactive calls. The calls are words filed in the database; no cut-off is given here.
# Tests used:
# [1] = biological target: Dual specificity mitogen-activated protein kinase kinase 1 (Homo sapiens) (UniProt Q02750); test: Inhibition of MAP2K1 Lys2 labeling site harbouring IMHRDVKPSNILVNSR in human Huh-7 cell lysate at 1 uM by KiNativ Profiling analysis relative to control; type: subcellular
# Chain of Dual specificity mitogen-activated protein kinase kinase 1 (Homo sapiens) (Q02750 whole entry): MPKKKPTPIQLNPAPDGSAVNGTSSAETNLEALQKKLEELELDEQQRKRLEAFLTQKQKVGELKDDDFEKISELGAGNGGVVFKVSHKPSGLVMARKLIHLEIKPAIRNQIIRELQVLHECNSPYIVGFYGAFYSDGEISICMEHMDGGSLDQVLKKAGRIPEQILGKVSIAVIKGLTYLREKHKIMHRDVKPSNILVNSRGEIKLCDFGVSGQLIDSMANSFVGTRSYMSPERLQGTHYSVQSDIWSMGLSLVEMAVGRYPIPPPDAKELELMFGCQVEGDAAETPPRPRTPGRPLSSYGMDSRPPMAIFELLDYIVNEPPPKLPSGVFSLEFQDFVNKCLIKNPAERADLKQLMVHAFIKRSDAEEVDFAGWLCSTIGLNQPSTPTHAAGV
# [2] = biological target: T1, Phosphatidylinositol 5-phosphate 4-kinase type-2 alpha (Homo sapiens) (UniProt P48426); test: Inhibition of PIP4K2A ATP labeling site harbouring AKELPTLKDNDFINEGQK in human Huh-7 cell lysate at 1 uM by KiNativ Profiling analysis relative to control; type: subcellular
# T1 sequence (whole entry): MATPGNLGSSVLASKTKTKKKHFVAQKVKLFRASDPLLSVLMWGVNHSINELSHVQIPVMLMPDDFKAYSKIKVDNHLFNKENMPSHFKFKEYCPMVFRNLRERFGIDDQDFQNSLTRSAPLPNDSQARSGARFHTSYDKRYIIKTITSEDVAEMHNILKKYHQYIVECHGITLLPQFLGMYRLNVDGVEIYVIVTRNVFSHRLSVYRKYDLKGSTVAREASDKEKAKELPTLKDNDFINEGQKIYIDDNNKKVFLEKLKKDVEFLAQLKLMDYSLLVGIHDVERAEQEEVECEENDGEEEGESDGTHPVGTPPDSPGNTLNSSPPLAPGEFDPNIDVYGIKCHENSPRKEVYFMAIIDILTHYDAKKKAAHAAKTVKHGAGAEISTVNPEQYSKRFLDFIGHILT
# [3] = biological target: Proto-oncogene tyrosine-protein kinase Src (Homo sapiens, UniProt P12931); test: Inhibition of SRC (unknown origin) at 1 uM by Ambit Kinomescan binding assay relative to control
# Chain of Proto-oncogene tyrosine-protein kinase Src (P12931 2-536 limits assumed): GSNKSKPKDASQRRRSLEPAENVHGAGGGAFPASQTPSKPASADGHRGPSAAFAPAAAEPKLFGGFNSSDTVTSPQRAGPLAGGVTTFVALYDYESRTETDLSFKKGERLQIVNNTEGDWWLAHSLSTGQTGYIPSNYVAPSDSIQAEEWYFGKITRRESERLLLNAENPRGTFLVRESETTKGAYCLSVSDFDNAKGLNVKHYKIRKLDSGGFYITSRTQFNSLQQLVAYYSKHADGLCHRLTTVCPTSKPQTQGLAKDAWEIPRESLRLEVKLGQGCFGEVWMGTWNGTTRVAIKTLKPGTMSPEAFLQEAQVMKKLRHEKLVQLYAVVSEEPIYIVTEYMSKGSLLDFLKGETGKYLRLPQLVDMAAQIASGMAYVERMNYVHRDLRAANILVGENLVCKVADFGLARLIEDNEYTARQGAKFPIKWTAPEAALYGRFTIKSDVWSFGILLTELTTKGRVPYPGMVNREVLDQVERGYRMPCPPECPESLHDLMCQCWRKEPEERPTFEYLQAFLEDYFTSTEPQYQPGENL
# [4] = biological target: Dual specificity protein kinase TTK (Homo sapiens) (UniProt P33981); test: Inhibition of TTK (unknown origin) at 1 uM by Ambit Kinomescan binding assay relative to control
# Chain of Dual specificity protein kinase TTK (Homo sapiens) (P33981 whole entry, canonical isoform): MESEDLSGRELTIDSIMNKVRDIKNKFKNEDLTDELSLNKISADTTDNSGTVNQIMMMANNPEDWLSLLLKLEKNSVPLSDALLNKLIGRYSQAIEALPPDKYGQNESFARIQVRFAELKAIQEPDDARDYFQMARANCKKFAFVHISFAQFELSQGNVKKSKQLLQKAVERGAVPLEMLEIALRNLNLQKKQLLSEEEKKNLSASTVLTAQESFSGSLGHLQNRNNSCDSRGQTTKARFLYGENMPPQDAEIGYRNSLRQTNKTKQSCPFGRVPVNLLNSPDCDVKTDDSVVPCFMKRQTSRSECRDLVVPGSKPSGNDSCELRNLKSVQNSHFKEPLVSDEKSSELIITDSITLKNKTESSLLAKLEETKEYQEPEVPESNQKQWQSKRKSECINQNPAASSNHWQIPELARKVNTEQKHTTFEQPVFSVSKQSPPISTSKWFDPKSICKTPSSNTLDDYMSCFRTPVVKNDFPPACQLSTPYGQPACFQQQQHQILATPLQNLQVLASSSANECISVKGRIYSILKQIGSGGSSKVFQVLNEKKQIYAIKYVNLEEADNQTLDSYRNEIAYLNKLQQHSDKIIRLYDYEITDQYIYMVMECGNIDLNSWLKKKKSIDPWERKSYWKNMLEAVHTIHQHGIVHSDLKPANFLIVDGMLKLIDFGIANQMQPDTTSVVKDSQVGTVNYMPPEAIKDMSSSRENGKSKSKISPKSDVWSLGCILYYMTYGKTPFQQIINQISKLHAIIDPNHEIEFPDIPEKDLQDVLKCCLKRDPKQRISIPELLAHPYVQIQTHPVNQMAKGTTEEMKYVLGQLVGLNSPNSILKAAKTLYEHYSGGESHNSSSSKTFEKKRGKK
# [5] = biological target: Phosphatidylinositol 4,5-bisphosphate 3-kinase catalytic subunit alpha isoform (Homo sapiens) (UniProt P42336); test: Inhibition of PIK3CA ATP labeling site in human A-375 cells at 0.5 uM by KiNativ Profiling analysis relative to control; type: cell-based
# Chain of Phosphatidylinositol 4,5-bisphosphate 3-kinase catalytic subunit alpha isoform (Homo sapiens) (P42336 whole entry, canonical isoform): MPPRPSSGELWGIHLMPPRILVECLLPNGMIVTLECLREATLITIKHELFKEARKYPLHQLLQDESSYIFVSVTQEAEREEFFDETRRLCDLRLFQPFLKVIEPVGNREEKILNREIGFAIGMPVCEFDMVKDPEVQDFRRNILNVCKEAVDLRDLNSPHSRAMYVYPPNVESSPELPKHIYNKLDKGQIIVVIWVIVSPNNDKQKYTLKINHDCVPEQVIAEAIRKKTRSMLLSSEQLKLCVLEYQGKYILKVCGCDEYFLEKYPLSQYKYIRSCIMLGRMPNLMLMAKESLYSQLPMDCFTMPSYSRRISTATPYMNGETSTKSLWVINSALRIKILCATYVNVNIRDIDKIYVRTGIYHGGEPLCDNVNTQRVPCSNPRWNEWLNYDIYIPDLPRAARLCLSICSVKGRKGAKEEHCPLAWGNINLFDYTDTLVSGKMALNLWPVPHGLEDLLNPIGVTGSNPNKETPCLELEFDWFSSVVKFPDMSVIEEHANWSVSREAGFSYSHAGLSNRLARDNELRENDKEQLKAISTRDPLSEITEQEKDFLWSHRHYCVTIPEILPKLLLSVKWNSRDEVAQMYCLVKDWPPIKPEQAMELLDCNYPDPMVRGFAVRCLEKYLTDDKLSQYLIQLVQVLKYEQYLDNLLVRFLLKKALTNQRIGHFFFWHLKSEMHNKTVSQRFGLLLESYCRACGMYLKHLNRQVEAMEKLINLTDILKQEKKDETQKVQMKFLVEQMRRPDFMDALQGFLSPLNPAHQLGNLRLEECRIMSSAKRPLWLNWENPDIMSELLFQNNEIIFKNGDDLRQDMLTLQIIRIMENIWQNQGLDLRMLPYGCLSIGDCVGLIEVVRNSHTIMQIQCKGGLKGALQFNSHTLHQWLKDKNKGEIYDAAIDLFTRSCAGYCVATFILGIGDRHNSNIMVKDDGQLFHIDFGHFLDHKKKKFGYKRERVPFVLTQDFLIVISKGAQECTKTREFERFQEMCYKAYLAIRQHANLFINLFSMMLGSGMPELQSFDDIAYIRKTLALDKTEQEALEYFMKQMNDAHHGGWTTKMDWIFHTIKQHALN
# [6] = biological target: Serine/threonine-protein kinase Nek4 (Homo sapiens) (UniProt P51957); test: Inhibition of NEK4 (unknown origin) at 1 uM by Ambit Kinomescan binding assay relative to control; values are per cent of control
# Chain of Serine/threonine-protein kinase Nek4 (Homo sapiens) (P51957 whole entry, looked up): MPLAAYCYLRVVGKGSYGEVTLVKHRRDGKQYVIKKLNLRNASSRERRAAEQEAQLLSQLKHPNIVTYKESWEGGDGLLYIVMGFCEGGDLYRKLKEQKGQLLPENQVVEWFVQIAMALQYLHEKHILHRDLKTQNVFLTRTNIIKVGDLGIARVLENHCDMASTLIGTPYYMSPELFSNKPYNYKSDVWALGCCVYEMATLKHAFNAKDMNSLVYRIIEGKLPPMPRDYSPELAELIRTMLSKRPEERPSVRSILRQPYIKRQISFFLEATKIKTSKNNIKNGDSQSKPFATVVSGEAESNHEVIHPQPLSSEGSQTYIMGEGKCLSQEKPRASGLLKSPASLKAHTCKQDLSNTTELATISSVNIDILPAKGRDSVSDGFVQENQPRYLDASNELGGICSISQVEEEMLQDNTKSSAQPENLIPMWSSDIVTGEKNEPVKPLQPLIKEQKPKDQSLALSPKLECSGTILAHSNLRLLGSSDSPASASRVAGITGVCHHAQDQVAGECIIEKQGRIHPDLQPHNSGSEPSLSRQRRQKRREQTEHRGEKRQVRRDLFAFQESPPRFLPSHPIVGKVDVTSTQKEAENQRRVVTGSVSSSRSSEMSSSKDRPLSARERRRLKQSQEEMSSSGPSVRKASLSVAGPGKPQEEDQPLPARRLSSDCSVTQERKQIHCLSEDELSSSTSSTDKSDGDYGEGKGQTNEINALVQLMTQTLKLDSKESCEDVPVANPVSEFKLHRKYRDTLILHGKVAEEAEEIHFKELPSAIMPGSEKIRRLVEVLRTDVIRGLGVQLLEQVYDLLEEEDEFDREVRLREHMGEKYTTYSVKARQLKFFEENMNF
# [7] = biological target: T2, Receptor-interacting serine/threonine-protein kinase 4 (Homo sapiens) (UniProt P57078); test: Inhibition of RIPK4 (unknown origin) at 10 uM by Ambit Kinomescan binding assay
# T2 sequence (whole entry): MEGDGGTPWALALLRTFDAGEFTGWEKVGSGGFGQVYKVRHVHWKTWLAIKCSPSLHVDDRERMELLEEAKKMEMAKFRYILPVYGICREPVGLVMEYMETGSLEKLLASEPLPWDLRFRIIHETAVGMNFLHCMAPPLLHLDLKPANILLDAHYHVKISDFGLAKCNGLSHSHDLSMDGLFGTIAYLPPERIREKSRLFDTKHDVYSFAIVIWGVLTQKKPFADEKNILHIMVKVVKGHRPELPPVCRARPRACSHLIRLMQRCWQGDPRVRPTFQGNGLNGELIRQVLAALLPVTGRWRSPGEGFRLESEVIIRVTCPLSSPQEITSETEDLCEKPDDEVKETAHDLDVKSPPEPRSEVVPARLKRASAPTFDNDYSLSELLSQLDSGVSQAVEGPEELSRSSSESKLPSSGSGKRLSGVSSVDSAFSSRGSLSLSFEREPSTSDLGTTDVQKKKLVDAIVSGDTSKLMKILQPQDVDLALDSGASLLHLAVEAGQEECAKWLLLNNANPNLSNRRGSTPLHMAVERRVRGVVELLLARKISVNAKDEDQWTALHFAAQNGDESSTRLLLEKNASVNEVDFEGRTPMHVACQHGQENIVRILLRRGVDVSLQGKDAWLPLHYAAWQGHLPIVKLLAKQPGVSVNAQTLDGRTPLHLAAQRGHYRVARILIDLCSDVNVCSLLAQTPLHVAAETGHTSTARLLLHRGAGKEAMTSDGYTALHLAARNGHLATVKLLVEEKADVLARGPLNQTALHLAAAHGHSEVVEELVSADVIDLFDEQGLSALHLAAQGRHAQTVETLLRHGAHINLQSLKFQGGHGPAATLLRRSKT
# [8] = biological target: Serine/threonine-protein kinase 10 (Homo sapiens) (UniProt O94804); test: Inhibition of LOK Lys1 labeling site harbouring NKETGALAAAKVIETK in human A-375 cells at 5 uM by KiNativ Profiling analysis relative to control; type: cell-based
# Chain of Serine/threonine-protein kinase 10 (Homo sapiens) (O94804 whole entry, looked up): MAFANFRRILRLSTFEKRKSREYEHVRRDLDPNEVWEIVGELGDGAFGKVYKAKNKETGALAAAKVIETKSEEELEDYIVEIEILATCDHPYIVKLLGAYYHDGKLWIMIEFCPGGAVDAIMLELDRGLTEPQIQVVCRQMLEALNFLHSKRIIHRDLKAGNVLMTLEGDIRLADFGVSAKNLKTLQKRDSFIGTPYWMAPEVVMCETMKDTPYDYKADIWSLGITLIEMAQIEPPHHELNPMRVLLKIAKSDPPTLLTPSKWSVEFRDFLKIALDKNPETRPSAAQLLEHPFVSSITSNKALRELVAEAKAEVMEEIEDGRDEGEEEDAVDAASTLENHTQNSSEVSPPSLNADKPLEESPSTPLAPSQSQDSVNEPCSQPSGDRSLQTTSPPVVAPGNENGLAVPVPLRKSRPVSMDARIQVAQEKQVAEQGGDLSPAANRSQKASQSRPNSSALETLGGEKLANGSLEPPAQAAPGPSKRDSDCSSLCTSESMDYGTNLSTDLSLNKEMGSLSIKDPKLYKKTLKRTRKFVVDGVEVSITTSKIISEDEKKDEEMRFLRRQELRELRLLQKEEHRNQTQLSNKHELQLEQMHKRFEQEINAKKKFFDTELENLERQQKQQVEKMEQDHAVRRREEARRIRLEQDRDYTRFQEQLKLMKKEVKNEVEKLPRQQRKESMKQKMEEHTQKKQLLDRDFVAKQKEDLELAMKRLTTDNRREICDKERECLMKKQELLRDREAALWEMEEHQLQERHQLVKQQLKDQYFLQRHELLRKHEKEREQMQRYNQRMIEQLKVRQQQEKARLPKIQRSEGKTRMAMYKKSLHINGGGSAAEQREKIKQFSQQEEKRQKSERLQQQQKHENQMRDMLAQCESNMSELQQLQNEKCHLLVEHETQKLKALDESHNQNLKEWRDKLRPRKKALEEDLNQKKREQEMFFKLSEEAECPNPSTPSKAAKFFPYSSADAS
# [9] = biological target: T3, Mitogen-activated protein kinase kinase kinase kinase 2 (Homo sapiens) (UniProt Q12851); test: Inhibition of MAP4K2 (GCK) Lys2 labeling site in human A-375 cells at 5 uM by KiNativ Profiling analysis relative to control; type: cell-based
# T3 sequence (whole entry): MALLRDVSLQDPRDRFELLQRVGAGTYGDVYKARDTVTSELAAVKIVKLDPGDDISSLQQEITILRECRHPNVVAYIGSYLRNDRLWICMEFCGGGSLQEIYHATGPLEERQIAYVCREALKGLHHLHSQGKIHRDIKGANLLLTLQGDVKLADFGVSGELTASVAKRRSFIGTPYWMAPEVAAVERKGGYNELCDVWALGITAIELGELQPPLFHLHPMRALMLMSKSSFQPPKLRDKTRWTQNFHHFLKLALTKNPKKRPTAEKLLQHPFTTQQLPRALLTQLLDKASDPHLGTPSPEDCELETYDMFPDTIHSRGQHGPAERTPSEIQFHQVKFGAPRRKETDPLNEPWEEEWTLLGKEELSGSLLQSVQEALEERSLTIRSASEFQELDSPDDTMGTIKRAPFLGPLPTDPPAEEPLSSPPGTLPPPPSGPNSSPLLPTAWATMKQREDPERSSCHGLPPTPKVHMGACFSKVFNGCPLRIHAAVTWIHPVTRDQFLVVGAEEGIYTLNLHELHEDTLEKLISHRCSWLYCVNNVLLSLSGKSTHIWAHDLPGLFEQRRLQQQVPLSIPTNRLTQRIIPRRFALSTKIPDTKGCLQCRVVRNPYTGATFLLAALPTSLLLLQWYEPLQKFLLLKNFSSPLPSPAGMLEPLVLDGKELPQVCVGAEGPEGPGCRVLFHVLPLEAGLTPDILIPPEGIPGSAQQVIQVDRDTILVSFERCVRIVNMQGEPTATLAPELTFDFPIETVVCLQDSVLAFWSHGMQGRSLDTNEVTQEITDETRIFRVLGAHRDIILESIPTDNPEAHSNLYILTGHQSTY
# [10] = biological target: Serine/threonine-protein kinase 16 (Homo sapiens) (UniProt O75716); test: Inhibition of MPSK1 K2 labeling site in human Huh-7 cells at 1 uM by KiNativ Profiling analysis relative to control; type: cell-based
# Chain of Serine/threonine-protein kinase 16 (Homo sapiens) (O75716 whole entry): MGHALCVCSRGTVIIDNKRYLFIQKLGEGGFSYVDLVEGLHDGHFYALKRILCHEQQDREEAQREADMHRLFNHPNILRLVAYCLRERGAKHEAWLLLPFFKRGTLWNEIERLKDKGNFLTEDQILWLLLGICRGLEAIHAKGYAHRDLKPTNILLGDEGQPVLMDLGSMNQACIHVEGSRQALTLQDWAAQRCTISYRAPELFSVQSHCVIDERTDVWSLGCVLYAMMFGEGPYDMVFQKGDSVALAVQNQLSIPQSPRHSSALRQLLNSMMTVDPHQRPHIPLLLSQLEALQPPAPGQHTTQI
compound,measurement,setting,value
CNc1cc(Oc2cc(C(=O)Nc3cc(N4CCN(C)CC4)cc(C(F)(F)F)c3)ccc2C)ncn1,inhibition,[1],23.6%
same,inhibition,[2],0.1%
CCN1CCN(Cc2ccc(NC(=O)c3ccc(C)c(/C=C/c4cnc5[nH]ccc5c4OC)c3)cc2C(F)(F)F)CC1,inhibition,[3],2.8%
same,inhibition,[4],56%
same,inhibition,[5],34.5%
same,residual activity,[6],100%
CCN1CCN(Cc2ccc(NC(=O)c3ccc(C)c(Oc4ccnc5[nH]ccc45)c3)cc2C(F)(F)F)CC1,inhibition,[7],inactive
same,inhibition,[8],85.6%
same,inhibition,[9],96.6%
same,inhibition,[10],6.7%
